Measured values reported in publication PMC8634903, “Effects of Dicyclohexyl Phthalate Exposure on PXR Activation and Lipid Homeostasis in Mice” (Environmental Health Perspectives, 2021).

Columns and labels:
[1] = target: T1, pregnane X receptor (hPXR) (Homo sapiens, UniProt O75469); assay: LanthaScreen TR-FRET competitive binding assay with recombinant GST-hPXR LBD; also cell reporter assay (EC50 […])
T1 construct: gene NR1I2
T1 sequence (O75469 130-434 limits assumed): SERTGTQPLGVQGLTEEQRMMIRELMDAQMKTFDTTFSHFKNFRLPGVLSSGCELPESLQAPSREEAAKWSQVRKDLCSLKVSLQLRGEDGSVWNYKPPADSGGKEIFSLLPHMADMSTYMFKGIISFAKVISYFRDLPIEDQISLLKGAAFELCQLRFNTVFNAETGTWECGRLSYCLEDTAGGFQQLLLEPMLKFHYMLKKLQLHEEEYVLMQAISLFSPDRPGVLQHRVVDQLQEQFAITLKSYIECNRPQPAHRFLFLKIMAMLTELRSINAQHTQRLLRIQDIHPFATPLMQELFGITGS

[2] = target: T2, rat pregnane X receptor (rPXR) (Rattus norvegicus, UniProt Q9R1A7); assay: GAL4-LBD luciferase reporter assay in LS180 cells at […] DCHP; type: cell-based
T2 construct: gene Nr1i2
T2 sequence (Q9R1A7 143-431 limits assumed): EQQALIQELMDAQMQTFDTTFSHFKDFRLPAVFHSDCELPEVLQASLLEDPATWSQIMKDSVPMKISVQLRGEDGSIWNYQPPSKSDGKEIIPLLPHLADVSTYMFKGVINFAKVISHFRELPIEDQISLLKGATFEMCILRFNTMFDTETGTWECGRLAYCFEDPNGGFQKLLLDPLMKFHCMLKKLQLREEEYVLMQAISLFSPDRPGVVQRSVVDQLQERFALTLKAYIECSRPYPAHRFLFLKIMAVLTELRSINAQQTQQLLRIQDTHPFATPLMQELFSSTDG

[3] = target: T1, pregnane X receptor (hPXR); assay: LanthaScreen TR-FRET competitive binding assay with recombinant GST-hPXR LBD (positive control); also cell reporter assay

Row | SMILES | IC50 [1] [µM] | GAL4-LBD luciferase reporter assay in LS180 cells at 10 μM DCHP [2] | LanthaScreen TR-FRET competitive binding assay with recombinant GST-hPXR LBD (po) [3]
1 | O=C(OC1CCCCC1)c1ccccc1C(=O)OC1CCCCC1 [DCHP, dicyclohexyl phthalate] | 7.3 | DCHP activated three forms of PXR including hPXR, mPXR, and rat PXR (rPXR) | 
2 | CCCCC(CC)COC(=O)c1ccccc1C(=O)OCC(CC)CCCC (stereo not drawn) [DEHP, di(2-ethylhexyl) phthalate] |  |  | inhibition of FRET between fluorescein-labeled PXR ligand and recombinant GST-PXR LBD by DCHP and DEHP
